# Results taken from US9359341B2, “Aldehyde derivative of substitute oxazolidinones” (WANBURY LTD., priority 2012, dated 2016).
# Where two headings read alike, the source gives them in different places.
# What was measured:
# [1] = Stability in simulating gastric fluid (SGF); type: physicochemical
# Procedure: On completion of incubation period, the solution is centrifuged and supernatant is taken. To the supernatant, ice cold acetonitrile containing IS is added, vortexed and injected into LCMS/MS.
# API 4000, ESI Agilent 1100 column: Gemini Nx 100 mm×4.6 mm 5.μ; column temperature: 30° C.; eluent A: 0.1% formic acid in water, eluent B: acetonitrile; gradient: 0-2.5 min 95% A, 5% B; 2.5-2.6 min 5% A, 95% B; 2.6-4.2 min 95% A, 5% B; flow rate: 0.8 ml/min; ESI. Q1:464.098, Q3:144.255
# Prepared 0.1 mol of citric acid and 0.2 mol of di sodium hydrogen phosphate in water. Buffer pH 2.2, 4 and 7.8 are prepared using citric acid and disodium hydrogen phosphate by adjusting the pH with 0.1N HCl or 1N NaOHpH 7.4: 8.89 g disodium hydrogen phosphate (Solution A) add to 1 liter of water, 1.5601 g sodium di-hydrogen phosphate (solution B) are made up to 1 liter with water; Solution A (19 ml) and Solution B (81 ml) are mixed. SIF/SGF: 2.38 g of SIF original powder (biorelavant media) is dissolved in 1 L of milliQ water. The pH of the solution is adjusted for SIF (7.4) and SGF (2.2) with 0.1N HCl. The ratios of the peak areas (F) at the respective time points in relation to the peak areas at the starting time are calculated
# The peak area (F) is directly correlated to the amount of test compound which is quantified by the LC MS method.
# In simulating intestinal and gastric fluid, the area of the formula B compared with zero minute area to 120 min.
# CYP2C19 = CYP2C19 (Homo sapiens (Human), UniProt P33261); test: CYP inhibition assay; type: in vitro ADME; conditions: pooled human liver microsomes; extrapolated IC50 derived from 3 μM; read-out: IC50 (μM) of CYP isoforms, 2C19
# Chain of CYP2C19 (P33261 whole entry, canonical isoform): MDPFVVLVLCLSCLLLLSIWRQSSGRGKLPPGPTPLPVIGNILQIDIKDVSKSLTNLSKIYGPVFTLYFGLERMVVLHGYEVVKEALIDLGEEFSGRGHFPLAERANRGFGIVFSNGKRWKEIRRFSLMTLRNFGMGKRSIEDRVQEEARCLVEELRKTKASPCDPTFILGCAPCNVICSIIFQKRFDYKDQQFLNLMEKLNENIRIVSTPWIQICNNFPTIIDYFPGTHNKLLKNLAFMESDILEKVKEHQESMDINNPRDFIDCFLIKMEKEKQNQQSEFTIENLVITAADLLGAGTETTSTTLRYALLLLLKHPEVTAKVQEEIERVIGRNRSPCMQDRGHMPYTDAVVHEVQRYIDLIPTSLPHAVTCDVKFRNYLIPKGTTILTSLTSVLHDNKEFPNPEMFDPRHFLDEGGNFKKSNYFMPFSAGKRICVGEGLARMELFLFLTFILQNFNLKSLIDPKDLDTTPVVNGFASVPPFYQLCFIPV
# Procedure: (§1) The ability of substances to inhibit CYP1A2, CYP2C9, CYP2D6, CYP2C19, CYP2J2 and CYP3A4 in humans was investigated with pooled human liver microsomes as enzyme source in the presence of standard substrates (see below) which form CYP-isoform-specific metabolites.
# (§2) Standard incubation mixtures comprise NADPH and substrates in 100 mM phosphate buffer (pH 7.4) in a total volume of 200 μl. Test compound are dissolved in acetonitrile. Incubated with pooled human liver microsomes at 37° C. for a defined time. The reactions are stopped by adding 100 μl of acetonitrile in which a suitable internal standard is always present. Precipitated proteins are removed by centrifugation, and the supernatants analyzed by LC-MS/MS. The data represents the extrapolated IC50 (μM) concentration derived from 3 μM.
# CYP2C9 = CYP2C9 (Homo sapiens (Human), UniProt P11712); test: CYP inhibition assay; type: in vitro ADME; conditions: pooled human liver microsomes; extrapolated IC50 derived from 3 μM; read-out: IC50 (μM) of CYP isoforms, 2C9
# Chain of CYP2C9 (P11712 whole entry, canonical isoform): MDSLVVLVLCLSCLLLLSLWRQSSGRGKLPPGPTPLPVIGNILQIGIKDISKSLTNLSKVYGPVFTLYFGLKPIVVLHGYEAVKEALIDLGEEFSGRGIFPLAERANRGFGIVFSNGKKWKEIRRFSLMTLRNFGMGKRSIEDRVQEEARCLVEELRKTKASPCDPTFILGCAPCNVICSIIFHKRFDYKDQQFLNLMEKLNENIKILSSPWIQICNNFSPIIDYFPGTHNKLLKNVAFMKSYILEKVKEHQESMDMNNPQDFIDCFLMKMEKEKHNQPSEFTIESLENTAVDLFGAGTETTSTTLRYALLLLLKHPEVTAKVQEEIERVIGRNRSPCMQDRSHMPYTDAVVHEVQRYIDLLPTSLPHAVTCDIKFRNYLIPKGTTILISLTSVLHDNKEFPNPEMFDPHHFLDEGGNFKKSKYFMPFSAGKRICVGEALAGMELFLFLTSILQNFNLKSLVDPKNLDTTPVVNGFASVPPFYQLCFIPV
# Procedure: as §1, §2
# CYP2D6 = CYP2D6 (Homo sapiens (Human), UniProt P10635); test: CYP inhibition assay; type: in vitro ADME; conditions: pooled human liver microsomes; extrapolated IC50 derived from 3 μM; read-out: IC50 (μM) of CYP isoforms, 2D6
# Chain of CYP2D6 (P10635 whole entry, canonical isoform): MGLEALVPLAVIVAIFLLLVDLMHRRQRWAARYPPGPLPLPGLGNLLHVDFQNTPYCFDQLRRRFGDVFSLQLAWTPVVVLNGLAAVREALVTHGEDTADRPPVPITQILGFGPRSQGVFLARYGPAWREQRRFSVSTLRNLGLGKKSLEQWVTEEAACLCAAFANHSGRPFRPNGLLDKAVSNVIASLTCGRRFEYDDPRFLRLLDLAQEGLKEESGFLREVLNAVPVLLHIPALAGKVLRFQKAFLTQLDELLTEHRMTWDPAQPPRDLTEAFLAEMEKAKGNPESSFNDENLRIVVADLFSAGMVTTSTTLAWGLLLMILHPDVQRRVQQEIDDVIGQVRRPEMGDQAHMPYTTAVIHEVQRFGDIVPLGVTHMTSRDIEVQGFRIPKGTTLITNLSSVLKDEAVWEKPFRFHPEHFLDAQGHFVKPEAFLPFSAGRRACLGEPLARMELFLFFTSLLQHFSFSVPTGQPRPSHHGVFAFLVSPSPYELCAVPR
# Procedure: as §1, §2
# CYP2J2 = CYP2J2 (Homo sapiens (Human), UniProt P51589); test: CYP inhibition assay; type: in vitro ADME; conditions: pooled human liver microsomes; extrapolated IC50 derived from 3 μM; read-out: IC50 (μM) of CYP isoforms, 2J2
# Chain of CYP2J2 (P51589 whole entry, canonical isoform): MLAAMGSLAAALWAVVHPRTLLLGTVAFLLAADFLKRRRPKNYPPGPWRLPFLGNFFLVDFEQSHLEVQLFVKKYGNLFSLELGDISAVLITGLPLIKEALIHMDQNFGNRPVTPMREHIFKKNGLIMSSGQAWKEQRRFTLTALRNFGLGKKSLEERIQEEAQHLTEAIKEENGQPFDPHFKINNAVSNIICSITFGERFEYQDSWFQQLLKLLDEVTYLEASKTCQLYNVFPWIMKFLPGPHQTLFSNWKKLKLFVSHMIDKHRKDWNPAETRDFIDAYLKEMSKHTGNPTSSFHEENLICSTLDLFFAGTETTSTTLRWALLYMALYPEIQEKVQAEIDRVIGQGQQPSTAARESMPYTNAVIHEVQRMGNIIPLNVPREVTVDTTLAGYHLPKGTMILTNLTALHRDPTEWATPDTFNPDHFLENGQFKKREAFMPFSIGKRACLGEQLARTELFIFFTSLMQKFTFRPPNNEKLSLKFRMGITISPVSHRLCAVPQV
# Procedure: as §1, §2
# CYP isoforms = test: CYP inhibition assay, all isoforms (overall interpretation); type: in vitro ADME, human; conditions: with other drug when administered
# Procedure: as §1, §2
# (§3) This is an essential parameter to gauge drug-drug interactions.
# [2] = test system: CYP1A2, CYP2C9, CYP2D6, CYP2C19, CYP2J2 and CYP3A4; test: as above; type: in vitro ADME, human; conditions: human, pooled human liver microsomes, pH 7.4; all assayed isoforms; minimal inhibition; read-out: inhibition of the CYP isoforms that were assayed
# Procedure: as §1, §2, §3
# [3] = Permeability in caco2 system; type: in vitro ADME; conditions: human, Caco-2, caco2 system
# caco2 system = test: Permeability in caco2 system; type: in vitro ADME; conditions: caco2 system
# [4] = In vitro liver microsomal stability assay (human); type: in vitro ADME; conditions: human liver microsomes
# Procedure: Liver microsomal stability assays are conducted at 1 mg per mL liver microsome protein with an NADPH in phosphate buffer (100 mM, pH 7.4). Test compounds (compound of formula B of the invention) are prepared as solutions in 20% methanol-water and added to the assay mixture (final assay concentration 1 μM) and incubated at 37° C. Aliquots (100.μ·L) are taken out at times 0, 15, and 30 minutes, and diluted with ice cold acetonitrile containing IS (200.mu·L) to stop the reactions. Samples are centrifuged at 10,000 RPM for 5 minutes to precipitate proteins. Supernatants are transferred to micro centrifuge tubes and stored at −20° C. for analysis of LC/MS/MS. The percent parent remaining of the test substance is calculated as Ratio of peak area at each time point to peak area ratio at zero min, multiplied by 100. The compound formula (B) is converted to Rivaroxaban in microsomal assay.
# [5] = Anticoagulant activity (PT, APTT) in human plasma; conditions: PT and APTT, 0.1 to 1.0 μg/mL
# Procedure: The anticoagulant action of the test substance (compound formula-B) and rivaroxaban was determined in vitro using human plasma. The human plasma used for this experiment was separated from the blood collected in sodium citrate as anticoagulant. The prothrombin time (PT) was determined by using a commercial test kit (Neoplastin from Stagid) and APTT was determined using (Synthasil kit by IL). […] Coagulation was then started by addition of thromboplastin, and time when coagulation occurred was determined. The concentration of test substance which effected a doubling of prothrombin time was determined.
compound,measurement,setting,value
"O=CN(C[C@H]1CN(c2ccc(N3CCOCC3=O)cc2)C(=O)O1)C(=O)c1ccc(Cl)s1 [Compound formula B, 5-chloro-N-formyl-N-({(5S)-2-oxo-3-[4-(3-oxomorpholin-4-yl)phenyl]-1,3-oxazolidin-5-yl}methyl)thiophene-2-carboxamide]",% Parent remaining,[1]; 30 min,99.27%
same,% Parent remaining,[1]; 60 min,101.17%
same,% Parent remaining,[1]; 120 min,100.05%
same,% Parent remaining,[1]; Zero min,100%
same,Conclusion (stability in SGF),[1]; up to 120 min,is stable
same,IC50,CYP2C19,25.3 µM
same,IC50,CYP2C9,22.4 µM
same,IC50,CYP2D6,8.2 µM
same,IC50,CYP2J2,6.7 µM
same,Interpretation of CYP inhibition studies,CYP isoforms,Low drug-drug interaction (compound formula-B
same,IC50,[2],> 1 µM
same,Papp,"[3]; read-out: Interpretation: permeability, classification based on Papp",> 20 ×10⁻⁶ cm/s
same,Papp,[3]; read-out: Papp A > B,17.4 ×10⁻⁶ cm/s
same,Papp,[3]; read-out: Papp B > A,40.3 ×10⁻⁶ cm/s
same,Interpretation: Pgp substrate (efflux of >2),caco2 system,observed to be a Pgp substrate.
same,Observation (metabolism; for Test Product: of the formed rivaroxaban),[4],stable in human
same,amount of test product detected,[4]; metabolised to rivaroxaban from zero min,Neglible amount
same,anticoagulant activity,[5],significant anticoagulant activity
